Eight molecules from PubChem BioAssay (NCI) can be followed below.

Among the test systems are BT-549 breast; MDA-MB-231 breast; SF-539 CNS; RPMI-8226 leukemia; HOP-92 NSCLC; OVCAR-8 ovarian; SNB-19 CNS; UACC-257 melanoma; SK-MEL-28 melanoma; KM12 colon.
Holding throughout (assay): NCI anticancer screen, dose series, 48 h

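48-hour exposure; five concentrations; linearly interpolated endpoints. Here, GI50 denotes the concentration required for 50% inhibition of growth. TGI marks complete inhibition of growth.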

Take `Nc1nc(C(=O)O)c(N=Nc2ccccc2)c(=O)[nH]1`: the TGI in the assay with BT-549 breast, with MDA-MB-231 breast, with SF-539 CNS, in the assay on RPMI-8226 leukemia, with HOP-92 NSCLC and in the assay on OVCAR-8 ovarian was above 100 µM in each case. Besides, the TGI in the assay with SNB-19 CNS, with UACC-257 melanoma, with SK-MEL-28 melanoma and in the assay with KM12 colon was above 100 µM each time.

Consider `O=C1/C(=C/c2ccccc2[N+](=O)[O-])COc2ccc(O)cc21`, for which the GI50 was 2.3 µM in the assay on BT-549 breast; 1.77 µM with MDA-MB-231 breast; 1.71 µM in the assay with SF-539 CNS; 0.612 µM in the assay with RPMI-8226 leukemia; 2.75 µM in the assay on HOP-92 NSCLC; 2.3 µM in the assay with OVCAR-8 ovarian. Besides, the GI50 in the assay on SNB-19 CNS is 4.15 µM; with UACC-257 melanoma, 2.16 µM; with SK-MEL-28 melanoma, 1.55 µM; in the assay with KM12 colon, 1.85 µM. In addition, the TGI was 5.23 µM in the assay on BT-549 breast; 3.69 µM in the assay on MDA-MB-231 breast; 4.27 µM in the assay with SF-539 CNS; 5 µM in the assay on RPMI-8226 leukemia; 12.5 µM with HOP-92 NSCLC; 47.8 µM in the assay on OVCAR-8 ovarian. The TGI amounted to 16.6 µM with SNB-19 CNS, 7.13 µM in the assay with UACC-257 melanoma, 3.14 µM with SK-MEL-28 melanoma and 4.31 µM in the assay with KM12 colon.

On to `COc1cc2c(cc1NC(=O)C(Cl)Cl)-c1ccc(NC(=O)C(Cl)Cl)cc1C2`, for which the GI50 in the assay with BT-549 breast was 1.74 µM; in the assay on MDA-MB-231 breast, 0.499 µM; in the assay on SF-539 CNS, 0.633 µM; in the assay on RPMI-8226 leukemia, 0.374 µM; in the assay with HOP-92 NSCLC, 1.15 µM; with OVCAR-8 ovarian, 0.439 µM. Moreover, the GI50 with SNB-19 CNS is 0.461 µM; in the assay on UACC-257 melanoma, 1.02 µM; in the assay on SK-MEL-28 melanoma, 0.611 µM; with KM12 colon, 0.336 µM. Also, the TGI was 13.3 µM with BT-549 breast; 2 µM in the assay with MDA-MB-231 breast; 2.22 µM in the assay with SF-539 CNS; 1.21 µM in the assay on RPMI-8226 leukemia; 3.54 µM with HOP-92 NSCLC; 1.68 µM in the assay with OVCAR-8 ovarian. Also, the TGI was found to be 2.06 µM in the assay on SNB-19 CNS, 3.54 µM with UACC-257 melanoma, 1.76 µM in the assay on SK-MEL-28 melanoma and 1.17 µM in the assay on KM12 colon.

Take `COC1=C(OC)[C@]2(OC)c3c(O)c(OC)c4c(c3O[C@@]23O[C@@H](c2ccccc2)CC=C3C1=O)[C@@H](OC)C[C@H](c1ccccc1)O4`: the GI50 was 0.461 µM in the assay on BT-549 breast; 0.445 µM in the assay with MDA-MB-231 breast; 0.421 µM in the assay with SF-539 CNS; 0.083 µM in the assay with RPMI-8226 leukemia; 1.24 µM in the assay with HOP-92 NSCLC; 0.451 µM in the assay with OVCAR-8 ovarian. Moreover, the GI50 in the assay on SNB-19 CNS was 1.81 µM; in the assay with UACC-257 melanoma, 0.814 µM; in the assay on SK-MEL-28 melanoma, 0.591 µM; in the assay with KM12 colon it was 1.57 µM. The TGI with BT-549 breast came out at 1.56 µM; in the assay with MDA-MB-231 breast, 1.7 µM; in the assay with SF-539 CNS, 1.54 µM; with RPMI-8226 leukemia, 0.335 µM; with HOP-92 NSCLC, 2.55 µM; in the assay with OVCAR-8 ovarian, 2.62 µM. The TGI was 3.51 µM in the assay with SNB-19 CNS, 2.17 µM in the assay with UACC-257 melanoma, 1.49 µM in the assay on SK-MEL-28 melanoma and 3.12 µM with KM12 colon.

For `C=CCN(CC=C)C(=O)[C@H](CC)[C@@H]1CC[C@@H](C)[C@@H]([C@H](C)[C@@H](O)[C@@H](C)C(=O)[C@H](CC)C2O[C@]3(C=C[C@@H](O)[C@]4(CC[C@@](C)([C@H]5CC[C@](O)(CC)[C@H](C)O5)O4)O3)[C@H](C)C[C@@H]2C)O1` (stereo not given in full), the GI50 in the assay with BT-549 breast was 3.03 µM; with MDA-MB-231 breast, 1.77 µM; in the assay with SF-539 CNS, 1.97 µM; in the assay on RPMI-8226 leukemia, 1.62 µM; in the assay with HOP-92 NSCLC, 1.39 µM; in the assay on OVCAR-8 ovarian, 3.48 µM. Further, the GI50 is 3.08 µM with SNB-19 CNS, 2.35 µM in the assay with UACC-257 melanoma, 4.45 µM in the assay with SK-MEL-28 melanoma and 1.87 µM with KM12 colon. Moreover, the TGI in the assay with BT-549 breast is 12.3 µM; with MDA-MB-231 breast, 3.84 µM; with SF-539 CNS it was 3.91 µM; with RPMI-8226 leukemia, 5.43 µM; with HOP-92 NSCLC, 4.31 µM; in the assay with OVCAR-8 ovarian, 76.4 µM. Further, the TGI is above 100 µM with SNB-19 CNS, 8.25 µM in the assay on UACC-257 melanoma, 21.6 µM in the assay on SK-MEL-28 melanoma and 3.65 µM with KM12 colon.

`Cc1cc(O)c2c3c(ccc2c1)C(=O)c1c(O)cccc1C3=O`: the TGI in the assay with BT-549 breast was above 100 µM; in the assay with MDA-MB-231 breast, above 100 µM; in the assay with SF-539 CNS, 50.5 µM; in the assay with RPMI-8226 leukemia, above 100 µM; in the assay on HOP-92 NSCLC, above 100 µM; with OVCAR-8 ovarian it was above 100 µM. For the same molecule, the TGI was above 100 µM in the assay on SNB-19 CNS, above 100 µM in the assay with UACC-257 melanoma, above 100 µM with SK-MEL-28 melanoma and above 37.8 µM in the assay on KM12 colon.

Take `N#C/C(=C\c1cc2ccc(N3CCC3)cc2oc1=O)C(=O)N(CC(=O)O)CC(=O)O`: the GI50 with BT-549 breast, with MDA-MB-231 breast, in the assay on SF-539 CNS, in the assay with RPMI-8226 leukemia, with HOP-92 NSCLC and with OVCAR-8 ovarian was above 100 µM in each case. Also, the GI50 with SNB-19 CNS, with UACC-257 melanoma, in the assay with SK-MEL-28 melanoma and in the assay on KM12 colon was above 100 µM each time. The TGI in the assay with BT-549 breast, in the assay on MDA-MB-231 breast, with SF-539 CNS, in the assay on RPMI-8226 leukemia, in the assay with HOP-92 NSCLC and in the assay with OVCAR-8 ovarian was above 100 µM in each case. Moreover, the TGI with SNB-19 CNS, in the assay with UACC-257 melanoma, with SK-MEL-28 melanoma and in the assay on KM12 colon was above 100 µM each time.

With `c1ccc(C2CCCCC2)c(OCCCCCN2CCNCC2)c1`, the GI50 with BT-549 breast is 7.38 µM; in the assay on MDA-MB-231 breast it was 1.62 µM; in the assay on SF-539 CNS it was 3.65 µM; in the assay on RPMI-8226 leukemia, 1.69 µM; with HOP-92 NSCLC, 4.44 µM; with OVCAR-8 ovarian it was 13.4 µM. The GI50 in the assay on SNB-19 CNS was 3.49 µM; with UACC-257 melanoma, 2.35 µM; with SK-MEL-28 melanoma, 1.81 µM; with KM12 colon it was 1.85 µM. In addition, the TGI with BT-549 breast is 37.9 µM; with MDA-MB-231 breast, 3.75 µM; with SF-539 CNS, 18.1 µM; with RPMI-8226 leukemia, 4.75 µM; in the assay with HOP-92 NSCLC it was 23 µM; with OVCAR-8 ovarian, 43 µM. The TGI in the assay on SNB-19 CNS was 14.4 µM; with UACC-257 melanoma, 4.92 µM; with SK-MEL-28 melanoma, 3.57 µM; with KM12 colon it was 4 µM.
